The results in this text go back to patent publication US12503475B2 (Centessa Pharmaceuticals (UK) Limited, priority 2020, dated 2025).

In the assay the target is T1, human orexin type 2 receptor (hOX2R) (Homo sapiens, UniProt O43614).
T1 construct: expressed in transfected cells
T1 sequence (O43614 1-444): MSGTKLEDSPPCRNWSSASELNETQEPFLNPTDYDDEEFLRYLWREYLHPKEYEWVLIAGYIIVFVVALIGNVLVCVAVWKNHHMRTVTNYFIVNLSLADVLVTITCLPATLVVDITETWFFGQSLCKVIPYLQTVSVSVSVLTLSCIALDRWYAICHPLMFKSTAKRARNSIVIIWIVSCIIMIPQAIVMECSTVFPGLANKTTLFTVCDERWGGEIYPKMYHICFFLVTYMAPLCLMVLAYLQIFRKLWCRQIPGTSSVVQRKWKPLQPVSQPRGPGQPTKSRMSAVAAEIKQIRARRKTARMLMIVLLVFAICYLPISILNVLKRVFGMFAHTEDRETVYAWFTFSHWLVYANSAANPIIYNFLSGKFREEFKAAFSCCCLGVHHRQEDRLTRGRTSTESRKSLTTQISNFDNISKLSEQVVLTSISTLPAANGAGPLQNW
Nature of the assay: Measurement of orexin type 2 receptor agonist activity (FLIPR calcium fluorescence). Format: cell-based. The following applies: CHO cells expressing hOX2R, FLIPR calcium fluorescence; for EC50: read-out: hOx2 pEC50 (converted); for Emax: CHO, read-out: hOx2 Emax (%). On the procedure: The biological activity of the compounds of the present disclosure may be determined in cells stably expressing either orexin type 2 or orexin type 1 receptor. […] The agonist activity of a compound of the present disclosure may be determined by fluorescence value.
Stable cell line generation.
Measurement of orexin type 2 receptor agonist activity. […] As used herein, E. indicates the value at 10 μM concentration when orexin A is converted to a full agonist (maximum value of agonist activity. 100%).

Each structure is given as a SMILES string. Several values for one entry are separate records, joined by “and”; a condition that tells them apart may be missing. Identical values can stand only once. A value given as a limit tells only on which side of the number the result lay.

As usually defined, the Emax is the maximal effect, on the per cent scale that the assay sets. Consider `CC(F)C(=O)N1CC2(CC2)C(NS(C)(=O)=O)C1Cc1cccc(-c2ccccc2)c1` (single isomer, unassigned) [Compound 1, N-(6-([1,1′-biphenyl]-3-ylmethyl)-5-(2-fluoropropanoyl)-5-azaspiro[2.4]heptan-7-yl)methanesulfonamide], for which the EC50 is 10 to 100 nM and the Emax was 70 to 80%.

With `CC(F)C(=O)N1CC2(CC2)C(NS(C)(=O)=O)C1Cc1cccc(-c2ccccc2)c1` (single isomer, unassigned) [Compound 2, N-(6-([1,1′-biphenyl]-3-ylmethyl)-5-(2-fluoropropanoyl)-5-azaspiro[2.4]heptan-7-yl)methanesulfonamide], the “hOx2 Emax (%)” value is “C (Emax ranging between 70 and 80)”; the EC50 is 100 to 1000 nM.

Turning to `N#C[C@@]1(C(=O)N2CC3(CC3)[C@H](NS(=O)(=O)CF)[C@@H]2Cc2cccc(-c3ccccc3)c2F)CCO1` (single isomer, unassigned) [Compound 225], the EC50 is 1 to 10 nM and the maximal response (Emax) fell in the range of 90 to 100%.

Take `CCS(=O)(=O)NC1C(Cc2cc(F)cc(-c3ccccc3)c2F)N(C(=O)[C@H](O)CF)CC12CC2` (stereo in doubt) [Compound 356, N-((6S,7S)-6-((2,5-difluoro-[1,1′-biphenyl]-3-yl)methyl)-5-((S)-3-fluoro-2-hydroxypropanoyl)-5-azaspiro[2.4]heptan-7-yl)ethanesulfonamide]: the EC50 is 10 to 100 nM and the maximum response (Emax) lay within 90 to 100%.

For `CC(C)C(=O)N1CC2(CC2)[C@@H](NS(C)(=O)=O)[C@H]1Cc1cccc(-c2ccccc2)c1` [Compound 16, N-((6R,7R)-6-([1,1′-biphenyl]-3-ylmethyl)-5-isobutyryl-5-azaspiro[2.4]heptan-7-yl)methanesulfonamide], the EC50 is 100 to 1000 nM and the Emax is 50 to 60%.

For the molecule `CC(C)C(=O)N1CC2(CC2)[C@H](NS(C)(=O)=O)[C@@H]1Cc1cccc(-c2ccccc2)c1` [Compound 17, N-((6S,7S)-6-([1,1′-biphenyl]-3-ylmethyl)-5-isobutyryl-5-azaspiro[2.4]heptan-7-yl)methanesulfonamide], the EC50 was 10 to 100 nM and the maximal response (Emax) was in the range of 90 to 100%.

On to `CS(=O)(=O)N[C@H]1[C@@H](Cc2cccc(-c3ccccc3)c2F)N(C(=O)[C@@H]2CCO2)CC12CC2` [Compound 19, N-((6R,7R)-6-((2-fluoro-[1,1′-biphenyl]-3-yl)methyl)-5-((S)-oxetane-2-carbonyl)-5-azaspiro[2.4]heptan-7-yl)methanesulfonamide], for which the EC50 is > 1000 nM and the maximal response (Emax) fell in the range of 90 to 100%.

In the case of `CS(=O)(=O)N[C@@H]1[C@H](Cc2cccc(-c3ccccc3)c2F)N(C(=O)[C@@H]2CCO2)CC12CC2` [Compound 20, N-((6S,7S)-6-((2-fluoro-[1,1′-biphenyl]-3-yl)methyl)-5-((S)-oxetane-2-carbonyl)-5-azaspiro[2.4]heptan-7-yl)methanesulfonamide], the EC50 is 10 to 100 nM and the Emax fell in the range of 90 to 100%.

With `CS(=O)(=O)N[C@@H]1[C@H](Cc2cccc(-c3ccccc3)c2F)N(C(=O)[C@H]2CCO2)CC12CC2` [Compound 21, N-((6S,7S)-6-((2-fluoro-[1,1′-biphenyl]-3-yl)methyl)-5-((R)-oxetane-2-carbonyl)-5-azaspiro[2.4]heptan-7-yl)methanesulfonamide], the EC50 is 1 to 10 nM and the maximal effect (Emax) is 90 to 100%.

Regarding `CS(=O)(=O)N[C@H]1[C@@H](Cc2cccc(-c3ccccc3)c2F)N(C(=O)[C@H]2CCO2)CC12CC2` [Compound 22, N-((6R,7R)-6-((2-fluoro-[1,1′-biphenyl]-3-yl)methyl)-5-((R)-oxetane-2-carbonyl)-5-azaspiro[2.4]heptan-7-yl)methanesulfonamide], the EC50 was 100 to 1000 nM and the Emax was in the range of 90 to 100%.

With `CS(=O)(=O)N[C@H]1[C@@H](Cc2cccc(-c3cccc(F)c3)c2F)N(C(=O)N2CCC2)CC12CC2` [Compound 26, N-((6R,7R)-5-(azetidine-1-carbonyl)-6-((2,3′-difluoro-[1,1′-biphenyl]-3-yl)methyl)-5-azaspiro[2.4]heptan-7-yl)methanesulfonamide], the EC50 is 10 to 100 nM and the maximal response (Emax) was in the range of 90 to 100%.

Consider `CS(=O)(=O)N[C@@H]1[C@H](Cc2cccc(-c3cccc(F)c3)c2F)N(C(=O)N2CCC2)CC12CC2` [Compound 27, N-((6S,7S)-5-(azetidine-1-carbonyl)-6-((2,3′-difluoro-[1,1′-biphenyl]-3-yl)methyl)-5-azaspiro[2.4]heptan-7-yl)methanesulfonamide], for which the EC50 was 1 to 10 nM and 0.0794 to 1 nM; the Emax fell in the range of 90 to 100%.

Regarding `CS(=O)(=O)N[C@H]1[C@@H](Cc2cccc(-c3cc(F)cc(F)c3)c2F)N(C(=O)N2CCC2)CC12CC2` [Compound 31, N-((6R,7R)-5-(azetidine-1-carbonyl)-6-((2,3′,5′-trifluoro-[1,1′-biphenyl]-3-yl)methyl)-5-azaspiro[2.4]heptan-7-yl)methanesulfonamide], the EC50 was 10 to 100 nM and the Emax was 90 to 100%.

As to `CS(=O)(=O)N[C@@H]1[C@H](Cc2cccc(-c3cc(F)cc(F)c3)c2F)N(C(=O)N2CCC2)CC12CC2` [Compound 32, N-((6S,7S)-5-(azetidine-1-carbonyl)-6-((2,3′,5′-trifluoro-[1,1′-biphenyl]-3-yl)methyl)-5-azaspiro[2.4]heptan-7-yl)methanesulfonamide], the EC50 was 0.0794 to 1 nM and the maximal response (Emax) fell in the range of 90 to 100%.

On to `CS(=O)(=O)N[C@@H]1[C@H](Cc2cccc(-c3cc(F)cc(F)c3)c2F)N(C(=O)C2CCC2)CC12CC2` [Compound 33, N-((6S,7S)-5-(cyclobutanecarbonyl)-6-((2,3′,5′-trifluoro-[1,1′-biphenyl]-3-yl)methyl)-5-azaspiro[2.4]heptan-7-yl)methanesulfonamide], for which the EC50 was 0.0794 to 1 nM and the maximal response (Emax) was 90 to 100%.

Take `CC(C)(O)C(=O)N1CC2(CC2)[C@H](NS(C)(=O)=O)[C@@H]1Cc1cccc(-c2cc(F)cc(F)c2)c1F` [Compound 34, N-((6S,7S)-5-(2-hydroxy-2-methylpropanoyl)-6-((2,3′,5′-trifluoro-[1,1′-biphenyl]-3-yl)methyl)-5-azaspiro[2.4]heptan-7-yl)methanesulfonamide]: the EC50 is 1 to 10 nM and the Emax is 90 to 100%.

Turning to `CS(=O)(=O)N[C@@H]1[C@H](Cc2cccc(-c3ccccc3)c2F)N(C(=O)N2CCC2)CC12CC2` [Compound 35, N-((6S,7S)-5-(azetidine-1-carbonyl)-6-((2-fluoro-[1,1′-biphenyl]-3-yl)methyl)-5-azaspiro[2.4]heptan-7-yl)methanesulfonamide], the EC50 was 1 to 10 nM and the maximal effect (Emax) fell in the range of 90 to 100%.

Take `CS(=O)(=O)N[C@@H]1[C@H](Cc2cccc(-c3cc(F)cc(F)c3)c2F)N(C(=O)[C@H]2CCO2)CC12CC2` [Compound 39, N-((6S,7S)-5-((R)-oxetane-2-carbonyl)-6-((2,3′,5′-trifluoro-[1,1′-biphenyl]-3-yl)methyl)-5-azaspiro[2.4]heptan-7-yl)methanesulfonamide]: the EC50 was 1 to 10 nM and the Emax fell in the range of 90 to 100%.

For the molecule `CS(=O)(=O)N[C@@H]1[C@H](Cc2cccc(-c3ccccc3F)c2)N(C(=O)[C@H]2CCO2)CC12CC2` [Compound 40, N-((6S,7S)-6-((2′-fluoro-[1,1′-biphenyl]-3-yl)methyl)-5-((R)-oxetane-2-carbonyl)-5-azaspiro[2.4]heptan-7-yl)methanesulfonamide], the EC50 is 10 to 100 nM and the Emax lay in the range of 90 to 100%.

`CCS(=O)(=O)N[C@@H]1[C@H](Cc2cccc(-c3ccccc3)c2)N(C(=O)[C@H]2CCO2)CC12CC2` [Compound 41]: the EC50 was 1 to 10 nM and the Emax lay in the range of 90 to 100%.

For the molecule `O=C([C@H]1CCO1)N1CC2(CC2)[C@H](NS(=O)(=O)C2CC2)[C@@H]1Cc1cccc(-c2ccccc2)c1` [Compound 42, N-((6S,7S)-6-([1,1′-biphenyl]-3-ylmethyl)-5-((R)-oxetane-2-carbonyl)-5-azaspiro[2.4]heptan-7-yl)cyclopropanesulfonamide], the EC50 is 1 to 10 nM and the Emax lay in the range of 90 to 100%.

`CS(=O)(=O)N[C@@H]1[C@H](Cc2cccc(-c3ccccc3)c2)N(C(=O)[C@H](O)C(F)(F)F)CC12CC2` [Compound 43, N-((6S,7S)-6-([1,1′-biphenyl]-3-ylmethyl)-5-((S)-3,3,3-trifluoro-2-hydroxypropanoyl)-5-azaspiro[2.4]heptan-7-yl)methanesulfonamide]: the “hOx2 Emax (%)” value is “A (Emax ranging between 90 and 100)”; the EC50 was 1 to 10 nM.

Take `CS(=O)(=O)N[C@@H]1[C@H](Cc2cccc(-c3ccccc3)c2)N(C(=O)C2(C#N)CCO2)CC12CC2` (stereo partly drawn) [Compound 47, N-((6S,7S)-6-([1,1′-biphenyl]-3-ylmethyl)-5-(2-cyanooxetane-2-carbonyl)-5-azaspiro[2.4]heptan-7-yl)methanesulfonamide]: the EC50 is 10 to 100 nM and the Emax lay within 90 to 100%.
